Data taken from patent US20090123501A1, “INHIBITION OF THE SH2-DOMAIN CONTAINING PROTEIN TYR-PHOSPHATASE, SHP-1, TO ENHANCE VACCINES” (Baylor College of Medicine, priority 2007, published 2009).

Tests used:
H-2K^b [1] = target: T1, H-2K^b (Mus musculus, UniProt P01901); assay: MHC class I surface stabilization assay on RMA-S cells, H-2Kb; type: binding; conditions: RMA-S cells pulsed with peptide overnight, flow cytometry
T1 construct: surface stabilization assay using the TAP1 deficient cell line RMA-S; endogenous in cells; host or cells: RMA-S
T1 sequence (P01901 22-369): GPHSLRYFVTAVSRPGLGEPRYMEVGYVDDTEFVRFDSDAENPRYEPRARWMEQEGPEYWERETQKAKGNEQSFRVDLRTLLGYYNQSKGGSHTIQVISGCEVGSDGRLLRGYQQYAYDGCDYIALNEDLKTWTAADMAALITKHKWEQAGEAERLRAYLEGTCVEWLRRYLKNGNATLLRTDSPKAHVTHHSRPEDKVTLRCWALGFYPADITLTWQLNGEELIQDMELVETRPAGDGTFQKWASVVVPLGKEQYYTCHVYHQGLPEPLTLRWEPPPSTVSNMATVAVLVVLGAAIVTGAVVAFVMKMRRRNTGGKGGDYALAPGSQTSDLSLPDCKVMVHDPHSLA
T1 sequence (P01887 21-119 partner): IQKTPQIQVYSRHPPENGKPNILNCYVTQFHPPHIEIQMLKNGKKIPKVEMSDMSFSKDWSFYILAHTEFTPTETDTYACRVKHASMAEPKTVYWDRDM
Protocol: (§1) 10^6 RMA-S cells were incubated overnight at 37° C. with each of the five predicted at the concentrations indicated. Cells were stained with antibodies for H-2K^b (Y-3; ATCC-HB176) or H-2D^b (28-14-8S; ATCC-HB27) followed by a goat anti-mouse-FITC second step and MHC class I surface expression was analyzed by flow cytometry. Specific MFI is the mean fluorescent intensity of the sample-mean fluorescent intensity of goat anti-mouse-FITC second step alone. Error bars represent the standard deviation of triplicate measurements.
(§2) The binding affinity of the five predicted peptides was tested. In a surface stabilization assay using the TAP1 deficient cell line RMA-S. RMA-S cells were pulsed with peptide, at the indicated concentrations, and incubated overnight. Cells were stained with antibodies for H-2K^b (Y-3; ATCC-HB176) or H-2D^b (28-14-8S; ATCC-HB27) followed by a fluorescent-labeled secondary antibody and MHC class I surface expression was analyzed by flow cytometry.

NFκB signaling = assay: NFκB-dependent secreted alkaline phosphatase reporter in RAW cells; type: cell-based, murine; conditions: transient transfection, IFNγ or LPS stimulation
Protocol: (§3) Function of the mutant and wt SHP-1 constructs was tested in RAW cells by transient transfection of SHP-1 vectors along with a reporter construct expressing a secreted alkaline phosphatase driven by either an NFκB or AP-1 dependent promoter. NFκB and AP-1 are major transcription factors stimulated by toll-like receptor (TLR) and cytokine signaling in immune system cells, and represent likely pathways of SHP-1 inhibition on cellular activation. Cells were transfected with the appropriate construct, reporter and then stimulated with interferon-γ (IFNγ) or bacterial lipopolysaccharide (LPS) as ligands for cytokine and TLR receptors respectively.

AP-1 signaling = assay: AP-1-dependent secreted alkaline phosphatase reporter in RAW cells; type: cell-based, murine; conditions: transient transfection, IFNγ or LPS stimulation
Protocol: as §3

H-2K^b [2] = target: T2, H-2K^b (mouse, UniProt P01887 21-119; P01901 22-305, limits assumed); assay: RMA-S surface stabilization assay, flow cytometry with antibody Y-3; reference peptide
T2 construct: whole, on cells;extracellular; MHC class I on RMA-S cells, detected with antibody Y-3 (ATCC-HB176) in a surface stabilization assay; also called MHC class 1 molecule H-2K^b
T2 sequence (MHC heavy, looked up): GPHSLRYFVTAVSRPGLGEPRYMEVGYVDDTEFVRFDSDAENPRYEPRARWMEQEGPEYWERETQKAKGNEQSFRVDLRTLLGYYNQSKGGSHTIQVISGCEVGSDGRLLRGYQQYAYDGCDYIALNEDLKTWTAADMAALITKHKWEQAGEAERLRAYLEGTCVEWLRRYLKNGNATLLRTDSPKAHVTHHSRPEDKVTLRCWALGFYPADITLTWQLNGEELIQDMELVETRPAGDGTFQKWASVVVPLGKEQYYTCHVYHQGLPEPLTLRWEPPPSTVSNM
T2 sequence (b2m, looked up): T1 sequence (P01887 21-119 partner)
Protocol: In Table 1, OVA Kb binding peptide […] was used as control for a known good binder.
as §1, with “10⁶” for “10^6”, “measurements. This is representative of 3 separate studies.” for “measurements.”
as §2, with “cytometry. […] STEAP₈₄₋₉₁ and STEAP₁₈₆₋₁₉₂ bound with an affinity near that of OVA₂₅₈₋₂₆₅, a well characterized strong binding H-2K^b epitope from chicken ovalbumin. […]” for “cytometry.”

H-2D^b = target: T3, H-2D^b (mouse, UniProt P01887 21-119; P01899 25-309); assay: RMA-S surface stabilization assay, flow cytometry of MHC class I surface expression
T3 construct: whole, on cells;extracellular; MHC class I on RMA-S cells, detected with antibody 28-14-8S (ATCC-HB27) in a surface stabilization assay; also called MHC class 1 molecule H-2D^b
T3 sequence (MHC heavy, looked up): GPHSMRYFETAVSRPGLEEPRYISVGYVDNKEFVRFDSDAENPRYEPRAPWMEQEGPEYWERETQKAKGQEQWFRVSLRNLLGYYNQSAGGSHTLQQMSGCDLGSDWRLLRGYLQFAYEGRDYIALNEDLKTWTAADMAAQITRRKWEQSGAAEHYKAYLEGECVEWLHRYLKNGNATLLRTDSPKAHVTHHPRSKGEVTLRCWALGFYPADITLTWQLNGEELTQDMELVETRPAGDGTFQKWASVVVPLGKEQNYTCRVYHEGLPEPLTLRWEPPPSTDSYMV
T3 sequence (b2m, looked up): T1 sequence (P01887 21-119 partner)
Protocol: as §1, with “10⁶” for “10^6”, “measurements. This is representative of 3 separate studies.” for “measurements.”
as §2, with “cytometry. […] STEAP₈₄₋₉₁ and STEAP₁₈₆₋₁₉₂ bound with an affinity near that of OVA₂₅₈₋₂₆₅, a well characterized strong binding H-2K^b epitope from chicken ovalbumin. […]” for “cytometry.”

LTFLYTLL [STEAP84-91] was tested, and the “relative binding affinity to H-2Kb (MHC class I surface expression)” value (H-2K^b [1]) was “bound with an affinity near that of OVA258-265”.

RSYRYKLL [STEAP186-192] was tested, and the “relative binding affinity to H-2Kb (MHC class I surface expression)” value (H-2K^b [1]) was “bound with an affinity near that of OVA258-265”.

With “dn-SHP-1: phosphatase dead dominant negative SHP-1 C453S mutant construct, HA-tagged (SEQ ID NO:8)” the NFκB signaling (NFκB signaling) was “enhanced both NFκB and AP-1 signaling” and the AP-1 signaling (AP-1 signaling) was “enhanced both NFκB and AP-1 signaling”.

B1: OVA258-265 (peptide)
peptide: SIINFEKL
notes: also called OVA peptide
B1: binds (H-2K^b [2]).

B2: STEAP262-270 (peptide)
peptide: LLLGTVHAL
notes: also called LLLGTVHAL
B2: no binding (H-2D^b).
